Reference: patent US10807944B2, “HDAC inhibitor compounds and methods of treatment” (priority 2014, dated 2020)
Where two headings read alike, the source gives them in different places.

Columns and labels:
HDAC2 [1] = biological target: T1, HDAC2 (Homo sapiens (Human), UniProt Q92769); experiment: HDAC2 in vitro inhibition, dose response; format: biochemical; conditions: Table 2; read-out: HDAC 2 IC50
HDAC1 [2] = biological target: T2, HDAC1 (Homo sapiens (Human), UniProt Q13547); experiment: HDAC1 in vitro inhibition, dose response; format: biochemical; conditions: Table 2; read-out: HDAC 1 IC50
T2 sequence (Q13547 whole entry): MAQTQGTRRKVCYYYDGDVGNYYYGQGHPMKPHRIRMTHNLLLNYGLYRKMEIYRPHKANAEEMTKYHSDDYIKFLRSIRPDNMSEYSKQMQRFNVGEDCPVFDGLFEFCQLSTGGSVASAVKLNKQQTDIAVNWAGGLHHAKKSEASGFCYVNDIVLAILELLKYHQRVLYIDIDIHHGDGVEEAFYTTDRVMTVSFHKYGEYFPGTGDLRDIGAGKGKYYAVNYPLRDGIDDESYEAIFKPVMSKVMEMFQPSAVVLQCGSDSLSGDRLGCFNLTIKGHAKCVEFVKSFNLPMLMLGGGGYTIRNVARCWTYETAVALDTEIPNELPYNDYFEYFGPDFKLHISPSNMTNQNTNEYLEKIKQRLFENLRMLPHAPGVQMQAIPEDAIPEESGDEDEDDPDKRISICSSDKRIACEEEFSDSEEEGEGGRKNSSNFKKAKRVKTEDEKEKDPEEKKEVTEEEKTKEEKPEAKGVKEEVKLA

HepG2 cells [3] = system: HepG2 cells
HDAC3 [4] = biological target: T3, HDAC3 (Homo sapiens (Human), UniProt O15379); experiment: HDAC3 in vitro inhibition, dose response; format: biochemical; conditions: Table 2; read-out: HDAC 3 IC50
T3 sequence (O15379 whole entry): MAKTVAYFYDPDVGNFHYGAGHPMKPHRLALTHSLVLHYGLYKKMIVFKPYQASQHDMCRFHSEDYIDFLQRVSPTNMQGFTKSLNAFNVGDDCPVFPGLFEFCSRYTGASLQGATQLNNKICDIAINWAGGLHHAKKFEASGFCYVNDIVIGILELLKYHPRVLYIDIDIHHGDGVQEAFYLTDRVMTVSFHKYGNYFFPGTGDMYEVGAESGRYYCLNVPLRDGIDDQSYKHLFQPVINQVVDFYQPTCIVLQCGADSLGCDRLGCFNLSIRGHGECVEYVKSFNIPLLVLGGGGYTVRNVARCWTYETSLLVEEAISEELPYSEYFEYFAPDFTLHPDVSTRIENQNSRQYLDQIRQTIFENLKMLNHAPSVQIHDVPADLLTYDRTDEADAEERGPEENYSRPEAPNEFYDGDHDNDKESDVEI
T3 sequence (Q9Y618 395-489 partner): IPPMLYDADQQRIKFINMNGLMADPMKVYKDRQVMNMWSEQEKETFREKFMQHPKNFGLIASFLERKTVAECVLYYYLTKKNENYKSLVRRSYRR

HDAC4 = HDAC4 (Homo sapiens (Human), UniProt P56524); conditions: Table 1, literature data; read-out: Inhibitory Potency (IC50) HDAC 4; cited from earlier work
Chain of HDAC4 (P56524 whole entry): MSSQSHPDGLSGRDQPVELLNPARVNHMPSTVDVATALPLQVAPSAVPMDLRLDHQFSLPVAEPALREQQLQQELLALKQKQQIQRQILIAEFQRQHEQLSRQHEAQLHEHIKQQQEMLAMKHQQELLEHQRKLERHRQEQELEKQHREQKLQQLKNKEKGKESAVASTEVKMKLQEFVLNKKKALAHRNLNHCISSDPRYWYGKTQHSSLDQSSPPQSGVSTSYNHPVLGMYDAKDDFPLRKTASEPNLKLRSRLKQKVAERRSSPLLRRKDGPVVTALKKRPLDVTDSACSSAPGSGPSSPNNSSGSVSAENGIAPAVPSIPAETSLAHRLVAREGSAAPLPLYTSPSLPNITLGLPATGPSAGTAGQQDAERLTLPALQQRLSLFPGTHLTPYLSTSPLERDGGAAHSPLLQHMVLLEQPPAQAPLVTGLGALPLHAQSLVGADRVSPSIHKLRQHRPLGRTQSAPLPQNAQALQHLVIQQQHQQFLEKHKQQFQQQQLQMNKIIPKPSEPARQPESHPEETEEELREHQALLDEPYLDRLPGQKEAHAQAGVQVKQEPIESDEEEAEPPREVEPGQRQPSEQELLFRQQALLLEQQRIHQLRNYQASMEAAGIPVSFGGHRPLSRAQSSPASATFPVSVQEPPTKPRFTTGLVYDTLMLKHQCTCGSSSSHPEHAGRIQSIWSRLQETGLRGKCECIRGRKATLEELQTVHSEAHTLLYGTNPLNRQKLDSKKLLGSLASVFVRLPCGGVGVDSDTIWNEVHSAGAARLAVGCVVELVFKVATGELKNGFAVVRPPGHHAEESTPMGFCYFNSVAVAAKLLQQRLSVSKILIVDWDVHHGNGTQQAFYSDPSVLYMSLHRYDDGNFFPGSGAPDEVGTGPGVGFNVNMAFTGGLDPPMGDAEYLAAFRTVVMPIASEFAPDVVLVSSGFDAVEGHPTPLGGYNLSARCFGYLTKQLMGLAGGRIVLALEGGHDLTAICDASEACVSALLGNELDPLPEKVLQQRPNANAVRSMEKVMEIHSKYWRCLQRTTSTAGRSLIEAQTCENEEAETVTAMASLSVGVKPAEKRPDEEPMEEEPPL

HDAC9 = HDAC9 (Homo sapiens (Human), UniProt Q9UKV0); conditions: Table 1, literature data; read-out: Inhibitory Potency (IC50) HDAC 9; cited from earlier work
HDAC10 = HDAC10 (Homo sapiens (Human), UniProt Q969S8); conditions: Table 1, literature data; read-out: Inhibitory Potency (IC50) HDAC 10; cited from earlier work
Chain of HDAC10 (Q969S8 whole entry): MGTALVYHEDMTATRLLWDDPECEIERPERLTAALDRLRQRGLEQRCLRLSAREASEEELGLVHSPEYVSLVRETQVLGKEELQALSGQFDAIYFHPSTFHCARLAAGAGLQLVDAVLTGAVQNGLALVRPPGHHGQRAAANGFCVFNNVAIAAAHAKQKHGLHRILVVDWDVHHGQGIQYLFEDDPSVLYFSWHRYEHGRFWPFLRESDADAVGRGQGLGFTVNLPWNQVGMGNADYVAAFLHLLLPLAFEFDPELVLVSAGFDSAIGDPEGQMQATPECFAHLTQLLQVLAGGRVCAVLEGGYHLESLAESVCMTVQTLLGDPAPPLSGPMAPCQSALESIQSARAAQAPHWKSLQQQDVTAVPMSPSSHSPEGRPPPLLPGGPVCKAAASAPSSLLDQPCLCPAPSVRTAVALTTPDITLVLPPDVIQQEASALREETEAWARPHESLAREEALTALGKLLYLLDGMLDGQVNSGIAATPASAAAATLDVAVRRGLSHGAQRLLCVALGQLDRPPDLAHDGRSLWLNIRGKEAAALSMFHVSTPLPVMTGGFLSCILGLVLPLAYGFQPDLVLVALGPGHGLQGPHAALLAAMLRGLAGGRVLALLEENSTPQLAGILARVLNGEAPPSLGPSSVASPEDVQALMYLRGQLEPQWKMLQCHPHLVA

HDAC8 [5] = biological target: T4, HDAC8 (Homo sapiens (Human), UniProt Q9BY41); conditions: Table 1, literature data; read-out: Inhibitory Potency (IC50) HDAC 8; cited from earlier work
T4 sequence (Q9BY41 whole entry): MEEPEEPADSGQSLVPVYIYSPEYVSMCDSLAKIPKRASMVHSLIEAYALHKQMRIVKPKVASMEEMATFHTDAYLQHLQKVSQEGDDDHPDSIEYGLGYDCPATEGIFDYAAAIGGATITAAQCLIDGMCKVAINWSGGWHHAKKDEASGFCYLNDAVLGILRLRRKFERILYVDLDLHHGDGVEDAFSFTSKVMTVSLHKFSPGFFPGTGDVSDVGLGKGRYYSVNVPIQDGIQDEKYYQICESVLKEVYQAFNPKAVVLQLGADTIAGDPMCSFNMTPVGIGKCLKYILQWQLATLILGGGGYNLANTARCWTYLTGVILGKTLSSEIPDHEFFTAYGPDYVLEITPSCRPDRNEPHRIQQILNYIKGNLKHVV

HDAC7 = HDAC7 (Homo sapiens (Human), UniProt Q8WUI4); conditions: Table 1, literature data; read-out: Inhibitory Potency (IC50) HDAC 7; cited from earlier work
HDAC5 = HDAC5 (Homo sapiens (Human), UniProt Q9UQL6); conditions: Table 1, literature data; read-out: Inhibitory Potency (IC50) HDAC 5; cited from earlier work
HDAC1 [6] = biological target: T2, HDAC1; experiment: In vitro HDAC1 inhibition of HTS hits (HDAC I/II-Glo reagents); format: biochemical; conditions: HTS follow-up
HDAC6 = HDAC6 (Homo sapiens (Human), UniProt Q9UBN7); experiment: HDAC6 in vitro inhibition, dose response; format: biochemical; conditions: Table 2; read-out: HDAC 6 IC50
Chain of HDAC6 (Q9UBN7 whole entry): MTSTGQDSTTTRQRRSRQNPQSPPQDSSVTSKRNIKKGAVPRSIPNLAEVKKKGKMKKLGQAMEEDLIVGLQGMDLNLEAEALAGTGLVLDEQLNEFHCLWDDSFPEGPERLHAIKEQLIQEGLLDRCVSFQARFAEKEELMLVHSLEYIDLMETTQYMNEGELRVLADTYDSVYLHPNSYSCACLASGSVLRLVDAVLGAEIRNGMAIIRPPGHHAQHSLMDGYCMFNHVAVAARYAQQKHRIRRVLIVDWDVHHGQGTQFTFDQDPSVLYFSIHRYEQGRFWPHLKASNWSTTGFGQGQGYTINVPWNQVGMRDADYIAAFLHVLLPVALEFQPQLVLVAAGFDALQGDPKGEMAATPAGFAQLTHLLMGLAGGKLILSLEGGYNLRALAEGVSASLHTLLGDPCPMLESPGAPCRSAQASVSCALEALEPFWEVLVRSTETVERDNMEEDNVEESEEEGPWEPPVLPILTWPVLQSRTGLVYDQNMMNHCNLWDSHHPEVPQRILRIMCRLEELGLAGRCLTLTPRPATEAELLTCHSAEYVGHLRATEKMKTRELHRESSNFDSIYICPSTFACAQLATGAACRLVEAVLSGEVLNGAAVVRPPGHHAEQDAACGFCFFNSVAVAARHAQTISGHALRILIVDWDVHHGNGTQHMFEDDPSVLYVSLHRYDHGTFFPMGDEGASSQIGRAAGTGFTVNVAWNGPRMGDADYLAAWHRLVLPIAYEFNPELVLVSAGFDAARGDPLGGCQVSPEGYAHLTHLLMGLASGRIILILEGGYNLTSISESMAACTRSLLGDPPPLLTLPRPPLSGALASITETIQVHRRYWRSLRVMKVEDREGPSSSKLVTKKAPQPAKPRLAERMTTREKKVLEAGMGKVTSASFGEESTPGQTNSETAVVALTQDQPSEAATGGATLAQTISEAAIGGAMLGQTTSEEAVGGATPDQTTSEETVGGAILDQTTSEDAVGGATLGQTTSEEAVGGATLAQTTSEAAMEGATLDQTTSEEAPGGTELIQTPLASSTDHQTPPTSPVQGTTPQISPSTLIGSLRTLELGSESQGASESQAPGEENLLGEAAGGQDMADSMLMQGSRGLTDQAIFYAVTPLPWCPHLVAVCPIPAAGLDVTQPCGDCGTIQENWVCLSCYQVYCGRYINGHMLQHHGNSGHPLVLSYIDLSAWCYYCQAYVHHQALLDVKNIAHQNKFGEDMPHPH

[7] = 4b, 50 mg/kg dosed orally, ref (4); cited from earlier work
MDA-MB-231 cells = experiment: Cancer cell viability (CellTiter-Glo); format: cell-based; conditions: for IC50: Homo sapiens, MDA-MB-231, read-out: Cancer cell (MDA-MB-231) killing IC50
HDAC2 [8] = biological target: T1, HDAC2; experiment: HDAC-2 inhibition potency, luminescence readout; format: biochemical; conditions: Table 6, luminescence readout
Source text: (§1) Compounds were examined for their HDAC inhibitory activity and their effect on cancer cell viability (MDA-MB-231 cells).

HDAC1 [9] = biological target: T2, HDAC1; experiment: HDAC-1 inhibition potency, luminescence readout; format: biochemical; conditions: Table 6, luminescence readout
Source text: as §1

[10] = rat, ref (6); cited from earlier work
in vivo = conditions: rat
HCT116 cells [11] = experiment: H3K18ac after 6 h pulse treatment and drug washout; format: cell-based; conditions: for time at which histone acetylation (H3K18ac) was induced: HCT116, 6 h pulse exposure; for time up to which induced acetylation was maintained: HCT116, 6 h pulse then drug washout, time after drug addition
HCT116 cells [12] = experiment: Histone acetylation by Western blotting; format: cell-based; conditions: for accumulation of acetylated histones: HCT116, 1 h exposure, TSA 0.2 μM, others 2 μM (FIG. 1A)
HDAC8 [13] = biological target: T4, HDAC8; experiment: HDAC8 in vitro inhibition, dose response; format: biochemical; conditions: Table 2; read-out: HDAC 8 IC50
HCT116 and A549 cells = experiment: Acetylation of non-histone proteins by Western blotting; format: cell-based; conditions: HCT116 and A549, 1 h; TSA 0.2 μM, UF010 2 μM
HDAC1 [14] = biological target: T2, HDAC1; conditions: Table 1, literature data; read-out: Inhibitory Potency (IC50) HDAC 1; cited from earlier work
[15] = system: Ad-MLP-Luc reporter in HCT116 cell line; experiment: Ad-MLP-Luc luciferase reporter activation; format: cell-based; conditions: HCT116, dose-dependent
HDAC3 [16] = biological target: T3, HDAC3; experiment: HDAC-3 inhibition potency, luminescence readout; format: biochemical; conditions: Table 6, luminescence readout
HepG2 cells [17] = experiment: cells; conditions: Homo sapiens

T1 sequence (Q92769 whole entry): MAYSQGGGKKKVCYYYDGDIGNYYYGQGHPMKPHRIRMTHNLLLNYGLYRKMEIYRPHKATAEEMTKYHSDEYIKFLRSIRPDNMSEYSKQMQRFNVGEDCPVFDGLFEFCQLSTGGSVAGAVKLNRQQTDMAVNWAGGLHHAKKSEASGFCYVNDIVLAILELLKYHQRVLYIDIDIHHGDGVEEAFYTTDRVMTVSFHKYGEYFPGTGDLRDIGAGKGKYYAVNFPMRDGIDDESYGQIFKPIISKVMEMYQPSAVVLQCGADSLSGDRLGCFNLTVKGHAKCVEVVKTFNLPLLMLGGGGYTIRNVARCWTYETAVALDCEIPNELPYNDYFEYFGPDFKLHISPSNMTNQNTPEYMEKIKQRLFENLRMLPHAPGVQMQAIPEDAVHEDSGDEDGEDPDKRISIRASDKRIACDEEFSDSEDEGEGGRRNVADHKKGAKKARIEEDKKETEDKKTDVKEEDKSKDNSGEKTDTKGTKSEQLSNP

SMILES | IC50 (HDAC2 [1]) | IC50 (HDAC1 [2]) | IC50 (HDAC3 [4]) | further results
CCCCNNC(=O)c1ccccc1 [RLS2-125, N′-butylbenzohydrazide] | > 50 µM | > 50000 nM | > 50000 nM | growth inhibition for HepG2 (HepG2 cells [3]; HepG2, 96 h): little to no growth inhibition
CC(=O)Nc1ccc(C(=O)Nc2cc(-c3cccs3)ccc2N)cc1 [Cpd60] | – | – | – | IC50 (HDAC4): > 30000 nM; IC50 (HDAC9): > 30 µM; IC50 (HDAC10): 3.4 µM; IC50 (HDAC8 [5]): > 30 µM; IC50 (HDAC7): > 30 µM; IC50 (HDAC5): > 30 µM
O=C(CCCCCCC(=O)Nc1ccccc1)NO [SAHA, vorinostat, reference compound] | – | – | – | potency of HDAC1 inhibition in vitro (HDAC1 [6]): < 10 µM
CCCCNNC(=O)c1ccc(-c2cc(C(=O)OCC)ccc2F)cc1 [SR-4373, ethyl 4′-(2-butylhydrazinecarbonyl)-6-fluorobiphenyl-3-carboxylate] | – | 1300 nM | 420 nM | IC50 (HDAC6): 6.5 µM
Nc1ccccc1NC(=O)CCCCCC(=O)Nc1ccccc1 [Compound 4b] | – | – | – | AUC [7]: 1080 nM·h; Cmax [7]: 1130 nM; T1/2 [7]: 2.76 h; Tmax [7]: 15 min
CCCCNNC(=O)c1ccc(-c2ccccc2)cc1 [SR-3558] | – | – | – | IC50 (MDA-MB-231 cells): 12.3 µM; IC50 (HDAC2 [8]): 800 nM; IC50 (HDAC1 [9]): 90 nM
Nc1ccccc1NC(=O)c1ccc(CNC(=O)OCc2cccnc2)cc1 [MS-275, entinostat] | – | – | – | MTD [10]: 3.1 mg/kg; MTD (in vivo): ~1.5 mg/kg; time at which histone acetylation (H3K18ac) was induced (HCT116 cells [11]): 18 h; time up to which induced acetylation was maintained (HCT116 cells [11]): at least 48 h; accumulation of acetylated histones (HCT116 cells [12]): only slightly induced acetylation at several sites but failed to induce acetylation at most sites
Cc1ccc(C(=O)NNC(C)(C)C)cc1 [RLS2-187, N′-tert-butyl-4-methylbenzohydrazide] | > 50 µM | > 50000 nM | > 50000 nM | –
CCCCNNC(=O)c1ccc([N+](=O)[O-])cc1 [RLS2-128, N′-butyl-4-nitrobenzohydrazide] | 21.2 µM | 21300 nM | 2470 nM | –
CCCCNNC(=O)c1ccc(-c2cc(C)cc(F)c2)cc1 [SR-4372, N′-butyl-3′-fluoro-5′-methylbiphenyl-4-carbohydrazide] | 1.2 µM | 760 nM | 380 nM | IC50 (HDAC8 [13]): 3600 nM; IC50 (HDAC6): 3.7 µM
CCCCNNC(=O)c1ccc(F)cc1 [RLS2-123, N′-butyl-4-fluorobenzohydrazide] | 15.1 µM | 13200 nM | 1780 nM | –
CCCCNNC(=O)c1ccc(-c2ccccc2)cc1 [RLS3-43, N′-butylbiphenyl-4-carbohydrazide] | 0.8 µM | 90 nM | – | IC50 (HDAC8 [13]): 2430 nM
CC(/C=C/C(=O)NO)=C\[C@@H](C)C(=O)c1ccc(N(C)C)cc1 [TSA, Trichostatin A, reference compound] | – | – | – | α-tubulin acetylation (HCT116 and A549 cells): dramatically increased; accumulation of acetylated histones (HCT116 cells [12]): strongly induced acetylation at some sites but weakly at other sites
C/C=C1\NC(=O)[C@H]2CSSCC/C=C/[C@H](CC(=O)N[C@H](C(C)C)C(=O)N2)OC(=O)[C@H](C(C)C)NC1=O [Romidepsin, romidepsin] | – | – | – | IC50 (HDAC4): 30 nM; IC50 (HDAC1 [14]): 2 nM; time at which histone acetylation (H3K18ac) was induced (HCT116 cells [11]): quickly induced acetylation; time up to which induced acetylation was maintained (HCT116 cells [11]): up to 24 h; Ad-MLP-Luc reporter activity [15]: dramatically increased
CCCNNC(=O)c1ccc(Br)cc1 [RLS2-137, 4-bromo-N′-propylbenzohydrazide] | 3.88 µM | 1700 nM | 220 nM | –
CCCCNNC(=O)c1ccc(-c2cccc(F)c2F)cc1 [SR-4370, N′-butyl-2′,3′-difluorobiphenyl-4-carbohydrazide] | 0.58 µM | 130 nM | 6 nM | IC50 (HDAC8 [13]): 2300 nM; IC50 (MDA-MB-231 cells): 12.6 µM; IC50 (HDAC3 [16]): 6 nM; IC50 (HDAC6): 3.7 µM; IC50 (HDAC2 [8]): 580 nM; IC50 (HDAC1 [9]): 130 nM
CCCCNNC(=O)c1ccc(CN=[N+]=[N-])cc1 [RLS2-312, 4-(azidomethyl)-N′-butylbenzohydrazide] | 0.527 µM | 320 nM | 150 nM | IC50 (HDAC6): 0.009 µM
CCCNNC(=O)c1ccc2ccccc2c1 [RLS2-255, N′-propyl-2-naphthohydrazide] | 6.68 µM | 3500 nM | 1650 nM | –
CC(C)NNC(=O)c1ccccc1 [RLS2-185, N′-isopropylbenzohydrazide] | > 50 µM | > 50000 nM | > 50000 nM | –
CCCCCCNNC(=O)c1ccc(Br)cc1 [RLS2-284, 4-bromo-N′-hexylbenzohydrazide] | 16.1 µM | 10300 nM | 20000 nM | –
CCCCNNC(=O)c1ccc(C(C)(C)C)cc1 [RLS2-211, 4-tert-butyl-N′-butylbenzohydrazide] | 1.04 µM | 190 nM | 70 nM | IC50 (HDAC8 [13]): 45 nM; IC50 (HDAC6): 0.045 µM
CCCCNNC(=O)c1ccc(OC(F)(F)F)cc1 [RLS2-124, N′-butyl-4-(trifluoromethoxy)benzohydrazide] | 9.09 µM | 8860 nM | 1350 nM | –
CCCCNNC(=O)c1ccc(OC)cc1 [RLS2-126, N′-butyl-4-methoxybenzohydrazide] | 2.52 µM | 1910 nM | 430 nM | –
CCCCNNC(=O)c1ccc(N(C)C)cc1 [RLS2-131, N′-butyl-4-(dimethylamino)benzohydrazide] | 0.88 µM | 230 nM | 120 nM | IC50 (HDAC8 [13]): 13100 nM; IC50 (HepG2 cells [17]; HepG2, read-out: IC50 Control): 1500 nM; IC50 (HepG2 cells [17]; HepG2, read-out: IC50 HDAC1 shRNA): 1800 nM; IC50 (HepG2 cells [17]; HepG2, read-out: IC50 HDAC2 shRNA): 2000 nM; IC50 (HepG2 cells [17]; HepG2, read-out: IC50 HDAC3 shRNA): 200 nM; potency against HepG2 relative to UF010 (HepG2 cells [3]; HepG2): 3 fold; IC50 (HDAC6): > 50 µM; inhibition of cellular HDACs (H4K5ac, H3K18ac) (HCT116 cells [12]; HCT116, 0.5 μM, 24 h (FIG. 1B)): potent inhibition of cellular HDACs
CCCCNNC(=O)c1ccc(OC)c(OC)c1 [RLS3-11, N′-butyl-3,4-dimethoxybenzohydrazide] | 20.4 µM | 22200 nM | 4000 nM | –
O=C(NNCC1CCCC1)c1ccc2ccccc2c1 [RLS2-254, N′-(cyclopentylmethyl)-2-naphthohydrazide] | > 50 µM | > 50000 nM | > 50000 nM | –
CCCCNNC(=O)c1ccccc1-c1ccccc1 [SR-3459] | – | – | – | IC50 (MDA-MB-231 cells): > 100 µM; effect on cancer cell viability (MDA-MB-231 cells; MDA-MB-231): does not impair cancer cell viability; HDAC inhibition potency (IC50) HDAC3 (HDAC3 [16]): No inhibition; HDAC inhibition potency (IC50) HDAC2 (HDAC2 [8]): No inhibition; HDAC inhibition potency (IC50) HDAC1 (HDAC1 [9]): No inhibition
